Columns and labels:
[1] = system: galium (catchweed bedstraw, Galium aparine); assay: Test C postemergence; type: in vivo; conditions: Galium, post-emergence, 336 h, Postemergence, scale 0 to 100, read-out: Plant response rating, Galium
[2] = system: ragweed (common ragweed, Ambrosia elatior); assay: Test C postemergence; type: in vivo; conditions: Ambrosia artemisiifolia, post-emergence, 336 h, Postemergence, scale 0 to 100, read-out: Plant response rating, Ragweed
[3] = system: lambsquarters (Chenopodium album); assay: Test C postemergence; type: in vivo; conditions: Chenopodium album, post-emergence, 336 h, Postemergence, scale 0 to 100, read-out: Plant response rating, Lambsquarters
corn (Zea mays) [4] = assay: Test C postemergence; type: in vivo; conditions: Zea mays, post-emergence, 336 h, Postemergence, scale 0 to 100
soybean (Glycine max) [5] = assay: Test C postemergence; type: in vivo; conditions: Glycine max, post-emergence, Postemergence, scale 0 to 100, read-out: Plant response rating, Soybean
[6] = system: waterhemp (common waterhemp, Amaranthus rudis); assay: Test C postemergence; type: in vivo; conditions: Amaranthus tuberculatus, post-emergence, Postemergence, scale 0 to 100, read-out: Plant response rating, Waterhemp
[7] = system: blackgrass (Alopecurus myosuroides); assay: Test C preemergence; type: in vivo; conditions: Alopecurus myosuroides, pre-emergence, 336 h, preemergence, scale 0 to 100, read-out: Plant response rating, Blackgrass
In short: (§1)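 0-100 visual injury score (100 = complete control), assessed at 13-15 d after treatment against controls; surfactant-containing solvent formulation applied preemergence to seeded loam-sand soil or sprayed onto 1- to 4-leaf greenhouse plants.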

[8] = system: barnyardgrass (Echinochloa crus-galli); assay: Test C preemergence; type: in vivo; conditions: Echinochloa crus-galli, pre-emergence, preemergence, scale 0 to 100, read-out: Plant response rating, Barnyardgrass
In short: as §1

[9] = system: Italian ryegrass (Lolium multiflorum); assay: Test C preemergence; type: in vivo; conditions: Lolium multiflorum, pre-emergence, 336 h, preemergence, scale 0 to 100, read-out: Plant response rating, Ryegrass, Italian
In short: as §1

[10] = system: pigweed (Amaranthus retroflexus); assay: Test C preemergence; type: in vivo; conditions: Amaranthus retroflexus, pre-emergence, 336 h, preemergence, scale 0 to 100, read-out: Plant response rating, Pigweed
In short: as §1

[11] = system: morningglory (Ipomoea coccinea); assay: Test C preemergence; type: in vivo; conditions: Ipomoea, pre-emergence, 336 h, preemergence, scale 0 to 100, read-out: Plant response rating, Morningglory
In short: as §1

[12] = system: winter wheat (Triticum aestivum); assay: Test C preemergence; type: in vivo; conditions: Triticum aestivum, pre-emergence, 336 h, preemergence, scale 0 to 100, read-out: Plant response rating, Wheat
In short: as §1

[13] = system: lambsquarters (Chenopodium album); assay: Test C preemergence; type: in vivo; conditions: Chenopodium album, pre-emergence, 336 h, preemergence, scale 0 to 100, read-out: Plant response rating, Lambsquarters
In short: as §1

[14] = system: oilseed rape (Brassica napus); assay: Test C preemergence; type: in vivo; conditions: Brassica napus, pre-emergence, preemergence, scale 0 to 100, read-out: Plant response rating, Oilseed Rape
In short: as §1

[15] = system: johnsongrass (Sorghum halepense); assay: Test C preemergence; type: in vivo; conditions: Sorghum halepense, pre-emergence, 336 h, preemergence, scale 0 to 100, read-out: Plant response rating, Johnsongrass
In short: as §1

[16] = system: yellow nutsedge (Cyperus esculentus); assay: Test C preemergence; type: in vivo; conditions: Cyperus, pre-emergence, 336 h, preemergence, scale 0 to 100, read-out: Plant response rating, Nutsedge, Yellow
In short: as §1

corn (Zea mays) [17] = assay: Test C preemergence; type: in vivo; conditions: Zea mays, pre-emergence, 336 h, preemergence, scale 0 to 100
In short: as §1

[18] = system: giant foxtail (Setaria faberii); assay: Test C preemergence; type: in vivo; conditions: Setaria faberi, pre-emergence, 336 h, preemergence, scale 0 to 100, read-out: Plant response rating, Foxtail, Giant
In short: as §1

soybean (Glycine max) [19] = assay: Test C preemergence; type: in vivo; conditions: Glycine max, pre-emergence, preemergence, scale 0 to 100, read-out: Plant response rating, Soybean
In short: as §1

[20] = system: waterhemp (common waterhemp, Amaranthus rudis); assay: Test C preemergence; type: in vivo; conditions: Amaranthus tuberculatus, pre-emergence, preemergence, scale 0 to 100, read-out: Plant response rating, Waterhemp
In short: as §1

[21] = system: velvetleaf (Abutilon theophrasti); assay: Test C preemergence; type: in vivo; conditions: Abutilon theophrasti, pre-emergence, preemergence, scale 0 to 100, read-out: Plant response rating, Velvetleaf
In short: as §1

[22] = system: large (Lg) crabgrass (Digitaria sanguinalis); assay: Test C preemergence; type: in vivo; conditions: Digitaria sanguinalis, pre-emergence, 336 h, preemergence, scale 0 to 100, read-out: Plant response rating, Crabgrass, Large
In short: as §1

`Fc1cccc(Oc2ncc(Cl)cn2)c1Oc1ncc(Br)cn1` [Compound 27, 5-bromo-2-[2-fluoro-6-[(5-chloro-2-pyrimidinyl)oxy]phenoxy]pyrimidine] showed a pest or weed control at 31 g/ha ([1]; 31 g ai/ha) of 70%, a pest or weed control at 62 g/ha ([1]; 62 g ai/ha) of 90% and a pest or weed control at 125 g/ha ([1]; 125 g ai/ha) of 95%. It also gave a pest or weed control at 250 g/ha ([1]; 250 g ai/ha) of 95%, a pest or weed control at 31 g/ha ([2]; 31 g ai/ha) of 15% and a pest or weed control at 62 g/ha ([2]; 62 g ai/ha) of 35%. The pest or weed control at 125 g/ha ([2]; 125 g ai/ha) was 60%, the pest or weed control at 250 g/ha ([2]; 250 g ai/ha) was 80% and the pest or weed control at 31 g/ha ([3]; 31 g ai/ha) was 55%. It also gave a pest or weed control at 62 g/ha ([3]; 62 g ai/ha) of 65%, a pest or weed control at 125 g/ha ([3]; 125 g ai/ha) of 80% and a pest or weed control at 250 g/ha ([3]; 250 g ai/ha) of 95%. For the same compound, the Corn plant response rating (crop injury, 0 = no effect, 100 = complete kill) at 31 g/ha (corn (Zea mays) [4]; 31 g ai/ha) was 10%, the Corn plant response rating (crop injury, 0 = no effect, 100 = complete kill) at 62 g/ha (corn (Zea mays) [4]; 62 g ai/ha) was 15% and the Corn plant response rating (crop injury, 0 = no effect, 100 = complete kill) at 125 g/ha (corn (Zea mays) [4]; 125 g ai/ha) was 20%. It also gave a Corn plant response rating (crop injury, 0 = no effect, 100 = complete kill) at 250 g/ha (corn (Zea mays) [4]; 250 g ai/ha) of 25%, a plant injury at 31 g/ha (soybean (Glycine max) [5]; 31 g ai/ha) of 65% and a plant injury at 62 g/ha (soybean (Glycine max) [5]; 62 g ai/ha) of 75%. For the same compound, the plant injury at 125 g/ha (soybean (Glycine max) [5]; 125 g ai/ha) was 90%, the plant injury at 250 g/ha (soybean (Glycine max) [5]; 250 g ai/ha) was 90% and the pest or weed control at 31 g/ha ([6]; 31 g ai/ha) was 70%. The pest or weed control at 62 g/ha ([6]; 62 g ai/ha) was 75%, the pest or weed control at 125 g/ha ([6]; 125 g ai/ha) was 90% and the pest or weed control at 250 g/ha ([6]; 250 g ai/ha) was 100%. The melting point was 145 to 148 °C, the pest or weed control at 31 g/ha ([7]; 31 g ai/ha) was 15% and the pest or weed control at 62 g/ha ([7]; 62 g ai/ha) was 60%. The pest or weed control at 125 g/ha ([7]; 125 g ai/ha) was 90%, the pest or weed control at 31 g/ha ([8]; 31 g ai/ha) was 55% and the pest or weed control at 62 g/ha ([8]; 62 g ai/ha) was 100%. For the same compound, the pest or weed control at 125 g/ha ([8]; 125 g ai/ha) was 100%, the pest or weed control at 250 g/ha ([8]; 250 g ai/ha) was 100% and the pest or weed control at 31 g/ha ([9]; 31 g ai/ha) was 10%. It also gave a pest or weed control at 62 g/ha ([9]; 62 g ai/ha) of 55%, a pest or weed control at 125 g/ha ([9]; 125 g ai/ha) of 80% and a pest or weed control at 250 g/ha ([9]; 250 g ai/ha) of 95%. It also gave a pest or weed control at 31 g/ha ([10]; 31 g ai/ha) of 100%, a pest or weed control at 62 g/ha ([10]; 62 g ai/ha) of 100% and a pest or weed control at 125 g/ha ([10]; 125 g ai/ha) of 100%. The pest or weed control at 31 g/ha ([11]; 31 g ai/ha) was 5%, the pest or weed control at 62 g/ha ([11]; 62 g ai/ha) was 40% and the pest or weed control at 125 g/ha ([11]; 125 g ai/ha) was 98%. The plant injury at 31 g/ha ([12]; 31 g ai/ha) was 0%, the plant injury at 62 g/ha ([12]; 62 g ai/ha) was 5% and the plant injury at 125 g/ha ([12]; 125 g ai/ha) was 40%. The plant injury at 250 g/ha ([12]; 250 g ai/ha) was 85%, the pest or weed control at 31 g/ha ([13]; 31 g ai/ha) was 80% and the pest or weed control at 62 g/ha ([13]; 62 g ai/ha) was 85%. The pest or weed control at 125 g/ha ([13]; 125 g ai/ha) was 100%, the plant injury at 31 g/ha ([14]; 31 g ai/ha) was 85% and the plant injury at 62 g/ha ([14]; 62 g ai/ha) was 100%. For the same compound, the plant injury at 125 g/ha ([14]; 125 g ai/ha) was 100%, the plant injury at 250 g/ha ([14]; 250 g ai/ha) was 100% and the pest or weed control at 31 g/ha ([15]; 31 g ai/ha) was 25%. For the same compound, the pest or weed control at 62 g/ha ([15]; 62 g ai/ha) was 55%, the pest or weed control at 125 g/ha ([15]; 125 g ai/ha) was 75% and the pest or weed control at 31 g/ha ([16]; 31 g ai/ha) was 0%. For the same compound, the pest or weed control at 62 g/ha ([16]; 62 g ai/ha) was 0%, the pest or weed control at 125 g/ha ([16]; 125 g ai/ha) was 55% and the Corn plant response rating (crop injury, 0 = no effect, 100 = complete kill) at 31 g/ha (corn (Zea mays) [17]; 31 g ai/ha) was 10%. It also gave a Corn plant response rating (crop injury, 0 = no effect, 100 = complete kill) at 62 g/ha (corn (Zea mays) [17]; 62 g ai/ha) of 45%, a Corn plant response rating (crop injury, 0 = no effect, 100 = complete kill) at 125 g/ha (corn (Zea mays) [17]; 125 g ai/ha) of 60% and a pest or weed control at 31 g/ha ([18]; 31 g ai/ha) of 80%. The pest or weed control at 62 g/ha ([18]; 62 g ai/ha) was 100%, the pest or weed control at 125 g/ha ([18]; 125 g ai/ha) was 100% and the plant injury at 31 g/ha (soybean (Glycine max) [19]; 31 g ai/ha) was 40%. The plant injury at 250 g/ha (soybean (Glycine max) [19]; 250 g ai/ha) was 90%, the pest or weed control at 31 g/ha ([20]; 31 g ai/ha) was 100% and the pest or weed control at 62 g/ha ([20]; 62 g ai/ha) was 100%. The pest or weed control at 125 g/ha ([20]; 125 g ai/ha) was 100%, the pest or weed control at 250 g/ha ([20]; 250 g ai/ha) was 100% and the pest or weed control at 31 g/ha ([21]; 31 g ai/ha) was 60%. For the same compound, the pest or weed control at 62 g/ha ([21]; 62 g ai/ha) was 95%, the pest or weed control at 125 g/ha ([21]; 125 g ai/ha) was 100% and the pest or weed control at 250 g/ha ([21]; 250 g ai/ha) was 100%. The pest or weed control at 31 g/ha ([22]; 31 g ai/ha) was 98%, the pest or weed control at 62 g/ha ([22]; 62 g ai/ha) was 98% and the pest or weed control at 125 g/ha ([22]; 125 g ai/ha) was 100%.

Source: patent US20170190671A1, “BIS(ARYL)CATECHOL DERIVATIVES AS HERBICIDES” (E I DU PONT DE NEMOURS AND COMPANY, priority 2014, published 2017)
